# From ChEMBL document CHEMBL1201861, “Genomics of Drug Sensitity in Cancer screening data, Wellcome Trust Sanger Institute”
# Experiments:
# COR-L105 = assay: cells; format: functional, cell-based; conditions: Homo sapiens
# Description: SANGER: Inhibition of human COR-L105 cell growth in a cell viability assay.
# CPC-N = assay: cells; format: functional, cell-based, Homo sapiens; conditions: Homo sapiens, CPC-N;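 further: growth inhibition of CPC-N cells, with a cell viability assay as the readout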
# Description: SANGER: Inhibition of human CPC-N cell growth in a cell viability assay.
# D-392MG = assay: cells; format: functional, cell-based; conditions: Homo sapiens
# DMS-273 = assay: cells; format: functional, cell-based; conditions: Homo sapiens
# Description: SANGER: Inhibition of human DMS-273 cell growth in a cell viability assay.
# DoTc2-4510 = assay: cells; format: functional, cell-based; conditions: Homo sapiens
# EFM-19 = assay: cells; format: functional, cell-based; conditions: Homo sapiens;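 further: growth inhibition of human EFM-19 cells, measured in a cell viability assay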
# Description: SANGER: Inhibition of human EFM-19 cell growth in a cell viability assay.
# EFO-21 = assay: cells; format: functional, cell-based; conditions: Homo sapiens;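 further: growth inhibition of EFO-21 cells measured with a viability assay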
# Description: SANGER: Inhibition of human EFO-21 cell growth in a cell viability assay.
# EFO-27 = assay: cells; format: functional, cell-based; conditions: Homo sapiens;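 further: growth inhibition of EFO-27 cells, read out with a cell viability assay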
# Description: SANGER: Inhibition of human EFO-27 cell growth in a cell viability assay.
# EW-24 = assay: cells; format: functional, cell-based, Homo sapiens; conditions: Homo sapiens, EW-24;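 further: human EW-24 cancer cell line, growth inhibition read out via a cell viability assay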
# Description: SANGER: Inhibition of human EW-24 cell growth in a cell viability assay.
# G-402 = assay: cells; format: functional, cell-based; conditions: Homo sapiens
# Description: SANGER: Inhibition of human G-402 cell growth in a cell viability assay.
# GCT = assay: cells; format: functional, cell-based; conditions: Homo sapiens;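 further: GCT cell line proliferation inhibition, read out with a cell viability assay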
# Description: SANGER: Inhibition of human GCT cell growth in a cell viability assay.
# HCT-116 = assay: cells; format: functional, cell-based; conditions: Homo sapiens
# Description: SANGER: Inhibition of human HCT-116 cell growth in a cell viability assay.
# HMV-2 cell line = assay: cells; format: functional, cell-based; conditions: Homo sapiens;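 further: growth inhibition of HMV-II cells, read out with a cell viability assay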
# Description: SANGER: Inhibition of human HMV-II cell growth in a cell viability assay.
# HSC-4 = assay: cells; format: functional, cell-based; conditions: Homo sapiens;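 further: growth inhibition of human HSC-4 cells, read out with a cell viability assay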
# Description: SANGER: Inhibition of human HSC-4 cell growth in a cell viability assay.
# HT-29 = assay: cells; format: functional, cell-based; conditions: Homo sapiens;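 further: growth inhibition of human HT-29 cells, read out by a cell viability assay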
# Description: SANGER: Inhibition of human HT-29 cell growth in a cell viability assay.
# HuTu80 = assay: cells; format: functional, cell-based, Homo sapiens, HUTU-80; conditions: Homo sapiens, HuTu80;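 further: growth inhibition of HuTu80 human cells, determined with a cell viability readout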
# Description: SANGER: Inhibition of human HUTU-80 cell growth in a cell viability assay.
# HuCCT-1 = assay: cells; format: functional, cell-based, HuCCT1; conditions: Homo sapiens;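 further: growth inhibition of HuCCT-1 cells, read out by a cell viability assay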
# Description: SANGER: Inhibition of human HuCCT1 cell growth in a cell viability assay.
# HuO-3N1 = assay: cells; format: functional, cell-based; conditions: Homo sapiens;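 further: cell viability readout used to measure how strongly compounds suppress proliferation of human HuO-3N1 cells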
# Description: SANGER: Inhibition of human HuO-3N1 cell growth in a cell viability assay.
# IM-9 = assay: SANGER: Inhibition of human IM-9 cell growth in a cell viability assay.; format: functional, cell-based; conditions: Homo sapiens, IM-9
# JIYOYE = assay: cells; format: functional, cell-based, Homo sapiens; conditions: Homo sapiens, JIYOYE
# Description: SANGER: Inhibition of human JiyoyeP-2003 cell growth in a cell viability assay.
# KYSE-410 = assay: cells; format: functional, cell-based; conditions: Homo sapiens;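 further: growth inhibition of KYSE-410 cells, measured through a cell viability readout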
# Description: SANGER: Inhibition of human KYSE-410 cell growth in a cell viability assay.
# KYSE-70 cell line = assay: cells; format: functional, cell-based; conditions: Homo sapiens;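 further: cell viability assay read-out, with IC50 expressing suppression of KYSE-70 cell growth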
# Description: SANGER: Inhibition of human KYSE-70 cell growth in a cell viability assay.
# LCLC-97TM1 = assay: cells; format: functional, cell-based; conditions: Homo sapiens;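 further: cell viability assay measuring growth inhibition of human LCLC-97TM1 cells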
# Description: SANGER: Inhibition of human LCLC-97TM1 cell growth in a cell viability assay.
# MC-CAR = assay: cells; format: functional, cell-based, Homo sapiens; conditions: Homo sapiens, MC-CAR;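 further: growth inhibition of the human MC-CAR cell line, read out by a cell viability assay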
# Description: SANGER: Inhibition of human MC-CAR cell growth in a cell viability assay.
# MDA-MB-231 = assay: cells; format: functional, cell-based; conditions: Homo sapiens
# Description: SANGER: Inhibition of human MDA-MB-231 cell growth in a cell viability assay.
# MFE-280 = assay: cells; format: functional, cell-based; conditions: Homo sapiens;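 further: growth inhibition of MFE-280 cells, determined with a cell viability readout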
# Description: SANGER: Inhibition of human MFE-280 cell growth in a cell viability assay.
# NALM-6 = assay: cells; format: functional, cell-based, Homo sapiens; conditions: Homo sapiens, NALM-6;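 further: growth inhibition of NALM-6 cells, read out with a cell viability assay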
# Description: SANGER: Inhibition of human NALM-6 cell growth in a cell viability assay.
# NCCIT = assay: SANGER: Inhibition of human NCCIT cell growth in a cell viability assay.; format: functional, cell-based; conditions: Homo sapiens, NCCIT
# NCI-H1755 = assay: cells; format: functional, cell-based; conditions: Homo sapiens;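 further: cell viability readout used to measure growth inhibition of NCI-H1755 cells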
# Description: SANGER: Inhibition of human NCI-H1755 cell growth in a cell viability assay.
# NCI-H2030 = assay: cells; format: functional, cell-based; conditions: Homo sapiens;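 further: growth inhibition of human NCI-H2030 cells, read out by a cell viability assay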
# Description: SANGER: Inhibition of human NCI-H2030 cell growth in a cell viability assay.
# NCI-H2081 = assay: cells; format: functional, cell-based, Homo sapiens; conditions: Homo sapiens, NCI-H2081;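 further: growth inhibition of human NCI-H2081 cells, read out with a cell viability assay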
# Description: SANGER: Inhibition of human NCI-H2081 cell growth in a cell viability assay.
# NCI-H2087 = assay: cells; format: functional, cell-based; conditions: Homo sapiens;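 further: growth inhibition determined with a cell viability readout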
# Description: SANGER: Inhibition of human NCI-H2087 cell growth in a cell viability assay.
# NCI-H2196 = assay: cells; format: functional, cell-based, Homo sapiens; conditions: Homo sapiens, NCI-H2196; read-out: IC50;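 further: cell viability assay used as the readout of growth inhibition in NCI-H2196 cells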
# Description: SANGER: Inhibition of human NCI-H2196 cell growth in a cell viability assay.
# NCI-H2342 = assay: cells; format: functional, cell-based; conditions: Homo sapiens;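 further: growth inhibition of the cancer cell line, determined with a cell viability assay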
# Description: SANGER: Inhibition of human NCI-H2342 cell growth in a cell viability assay.
# NCI-H2405 = assay: cells; format: functional, cell-based; conditions: Homo sapiens;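 further: growth inhibition of the human cell line, read out with a cell viability assay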
# Description: SANGER: Inhibition of human NCI-H2405 cell growth in a cell viability assay.
# NCI-H292 = assay: cells; format: functional, cell-based; conditions: Homo sapiens;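 further: growth inhibition of NCI-H292 cells, read out with a cell viability assay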
# Description: SANGER: Inhibition of human NCI-H292 cell growth in a cell viability assay.
# NCI-H748 = assay: cells; format: functional, cell-based, Homo sapiens; conditions: Homo sapiens, NCI-H748;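 further: growth inhibition of NCI-H748 cells, measured by a cell viability assay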
# Description: SANGER: Inhibition of human NCI-H748 cell growth in a cell viability assay.
# NUGC-3 = assay: cells; format: functional, cell-based; conditions: Homo sapiens;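 further: growth inhibition of human NUGC-3 cells, read out with a cell viability assay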
# Description: SANGER: Inhibition of human NUGC-3 cell growth in a cell viability assay.
# P31-FUJ = assay: cells; format: functional, cell-based, Homo sapiens; conditions: Homo sapiens, P31-FUJ;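 further: growth inhibition of P31-FUJ cells, read out with a viability assay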
# Description: SANGER: Inhibition of human P31-FUJ cell growth in a cell viability assay.
# RD = assay: cells; format: functional, cell-based; conditions: Homo sapiens
# Description: SANGER: Inhibition of human RD cell growth in a cell viability assay.
# RPMI-6666 = assay: cells; format: functional, cell-based, Homo sapiens; conditions: Homo sapiens, RPMI-6666
# Description: SANGER: Inhibition of human RPMI-6666 cell growth in a cell viability assay.
# S-117 = assay: cells; format: functional, cell-based; conditions: Homo sapiens
# Description: SANGER: Inhibition of human S-117 cell growth in a cell viability assay.
# SCC-25 = assay: cells; format: functional, cell-based; conditions: Homo sapiens;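 further: growth inhibition of SCC-25 cells, measured with a cell viability assay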
# Description: SANGER: Inhibition of human SCC-25 cell growth in a cell viability assay.
# SNU-387 = assay: cells; format: functional, cell-based; conditions: Homo sapiens
# Description: SANGER: Inhibition of human SNU-387 cell growth in a cell viability assay.
# SUP-T1 = assay: cells; format: functional, cell-based, Homo sapiens; conditions: Homo sapiens, SUP-T1;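 further: growth inhibition of human SUP-T1 cells, read out as cell viability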
# Description: SANGER: Inhibition of human SUP-T1 cell growth in a cell viability assay.
# SW1990 = assay: cells; format: functional, cell-based; conditions: Homo sapiens
# Description: SANGER: Inhibition of human SW1990 cell growth in a cell viability assay.
# SW48 = assay: cells; format: functional, cell-based; conditions: Homo sapiens;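 further: growth inhibition of SW48 cells, read out with a cell viability assay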
# Description: SANGER: Inhibition of human SW48 cell growth in a cell viability assay.
# SW780 = assay: cells; format: functional, cell-based; conditions: Homo sapiens;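 further: growth inhibition of the cells, read out with a cell viability assay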
# Description: SANGER: Inhibition of human SW780 cell growth in a cell viability assay.
# T98G = assay: cells; format: functional, cell-based; conditions: Homo sapiens;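 further: growth inhibition of T98G cells, read out by a cell viability assay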
# Description: SANGER: Inhibition of human T98G cell growth in a cell viability assay.
# TALL-1 = assay: cells; format: functional, cell-based, Homo sapiens; conditions: Homo sapiens, TALL-1;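 further: growth inhibition of cultured human TALL-1 cells, read out by a cell viability assay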
# Description: SANGER: Inhibition of human TALL-1 cell growth in a cell viability assay.
# 8505C = assay: cells; format: functional, cell-based; conditions: Homo sapiens
# Description: SANGER: Inhibition of human 8505C cell growth in a cell viability assay.
# A204 = assay: cells; format: functional, cell-based; conditions: Homo sapiens;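 further: growth inhibition of human A204 cells, read out with a cell viability assay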
# Description: SANGER: Inhibition of human A204 cell growth in a cell viability assay.
# A-427 = assay: cells; format: functional, cell-based; conditions: Homo sapiens;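 further: growth inhibition of human A-427 cells, read out by a cell viability assay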
# Description: SANGER: Inhibition of human A427 cell growth in a cell viability assay.
# BHT-101 = assay: cells; format: functional, cell-based; conditions: Homo sapiens
# Description: SANGER: Inhibition of human BHT-101 cell growth in a cell viability assay.
# CAKI-1 = assay: cells; format: functional, cell-based; conditions: Homo sapiens;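 further: growth inhibition of CAKI-1 cells, measured by a cell viability assay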
# Description: SANGER: Inhibition of human CAKI-1 cell growth in a cell viability assay.
# TUR = assay: cells; format: functional, cell-based, Homo sapiens; conditions: Homo sapiens, TUR;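 further: growth inhibition of human TUR cells, read out with a cell viability assay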
# Description: SANGER: Inhibition of human TUR cell growth in a cell viability assay.
# UMC-11 = assay: cells; format: functional, cell-based; conditions: Homo sapiens;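 further: growth inhibition of UMC-11 cells, read out with a cell viability assay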
# Description: SANGER: Inhibition of human UMC-11 cell growth in a cell viability assay.
# VM-CUB-1 = assay: cells; format: functional, cell-based; conditions: Homo sapiens;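 further: cell viability assay measuring growth inhibition of the human VM-CUB-1 cell line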
# Description: SANGER: Inhibition of human VM-CUB-1 cell growth in a cell viability assay.
# CHP-212 = assay: cells; format: functional, cell-based; conditions: Homo sapiens
# Description: SANGER: Inhibition of human CHP-212 cell growth in a cell viability assay.
smiles,measurement,setting,value
C/C(=C\c1csc(C)n1)[C@@H]1C[C@@H]2O[C@]2(C)CCC[C@H](C)[C@H](O)[C@@H](C)C(=O)C(C)(C)[C@@H](O)CC(=O)O1 [PATUPILONE],IC50,COR-L105,0.00954 µM
same,IC50,CPC-N,0.0107 µM
same,IC50,D-392MG,> 0.032 µM
same,IC50,DMS-273,0.00162 µM
same,IC50,DoTc2-4510,0.000846 µM
same,IC50,EFM-19,0.0106 µM
same,IC50,EFO-21,0.00982 µM
same,IC50,EFO-27,0.00169 µM
same,IC50,EW-24,> 0.032 µM
same,IC50,G-402,0.00527 µM
same,IC50,GCT,0.00661 µM
same,IC50,HCT-116,0.00469 µM
same,IC50,HMV-2 cell line,0.000394 µM
same,IC50,HSC-4,0.0299 µM
same,IC50,HT-29,0.000499 µM
same,IC50,HuTu80,0.000328 µM
same,IC50,HuCCT-1,0.00261 µM
same,IC50,HuO-3N1,> 0.032 µM
same,IC50,IM-9,> 0.032 µM
same,IC50,JIYOYE,0.00781 µM
same,IC50,KYSE-410,0.00102 µM
same,IC50,KYSE-70 cell line,0.00758 µM
same,IC50,LCLC-97TM1,0.000444 µM
same,IC50,MC-CAR,0.00973 µM
same,IC50,MDA-MB-231,0.0246 µM
same,IC50,MFE-280,> 0.032 µM
same,IC50,NALM-6,0.00218 µM
same,IC50,NCCIT,0.00173 µM
same,IC50,NCI-H1755,> 0.032 µM
same,IC50,NCI-H2030,0.000699 µM
same,IC50,NCI-H2081,> 0.032 µM
same,IC50,NCI-H2087,0.00311 µM
same,IC50,NCI-H2196,> 0.032 µM
same,IC50,NCI-H2342,0.000577 µM
same,IC50,NCI-H2405,0.0127 µM
same,IC50,NCI-H292,0.00142 µM
same,IC50,NCI-H748,> 0.032 µM
same,IC50,NUGC-3,0.00116 µM
same,IC50,P31-FUJ,> 0.032 µM
same,IC50,RD,0.00442 µM
same,IC50,RPMI-6666,0.0015 µM
same,IC50,S-117,> 0.032 µM
same,IC50,SCC-25,0.00122 µM
same,IC50,SNU-387,0.00566 µM
same,IC50,SUP-T1,> 0.032 µM
same,IC50,SW1990,> 0.032 µM
same,IC50,SW48,0.0042 µM
same,IC50,SW780,> 0.032 µM
same,IC50,T98G,0.02 µM
same,IC50,TALL-1,> 0.032 µM
same,IC50,8505C,0.000451 µM
same,IC50,A204,0.00312 µM
same,IC50,A-427,0.000828 µM
same,IC50,BHT-101,0.00152 µM
same,IC50,CAKI-1,0.0173 µM
same,IC50,TUR,0.00186 µM
same,IC50,UMC-11,> 0.032 µM
same,IC50,VM-CUB-1,0.00309 µM
same,IC50,CHP-212,0.00583 µM
COC(=O)[C@H](CCSC)NC(=O)c1ccc(NC[C@@H](N)CS)cc1-c1ccccc1,IC50,COR-L105,> 1.02 µM
same,IC50,CPC-N,> 1.02 µM
same,IC50,D-392MG,> 1.02 µM
same,IC50,DMS-273,> 1.02 µM
same,IC50,DoTc2-4510,> 1.02 µM
same,IC50,EFM-19,> 1.02 µM
same,IC50,EFO-21,> 1.02 µM
same,IC50,EFO-27,> 1.02 µM
same,IC50,EW-24,> 1.02 µM
same,IC50,G-402,> 1.02 µM
same,IC50,GCT,> 1.02 µM
same,IC50,HCT-116,> 1.02 µM
same,IC50,HMV-2 cell line,> 1.02 µM
same,IC50,HSC-4,> 1.02 µM
same,IC50,HT-29,> 1.02 µM
same,IC50,HuTu80,> 1.02 µM
same,IC50,HuCCT-1,> 1.02 µM
same,IC50,HuO-3N1,> 1.02 µM
same,IC50,IM-9,> 1.02 µM
same,IC50,JIYOYE,> 1.02 µM
same,IC50,KYSE-410,> 1.02 µM
same,IC50,KYSE-70 cell line,> 1.02 µM
same,IC50,LCLC-97TM1,> 1.02 µM
same,IC50,MC-CAR,> 1.02 µM
same,IC50,MDA-MB-231,> 1.02 µM
same,IC50,MFE-280,> 1.02 µM
same,IC50,NALM-6,> 1.02 µM
same,IC50,NCCIT,> 1.02 µM
same,IC50,NCI-H1755,> 1.02 µM
same,IC50,NCI-H2030,> 1.02 µM
same,IC50,NCI-H2081,> 1.02 µM
same,IC50,NCI-H2087,> 1.02 µM
same,IC50,NCI-H2196,> 1.02 µM
same,IC50,NCI-H2342,> 1.02 µM
same,IC50,NCI-H2405,> 1.02 µM
same,IC50,NCI-H292,> 1.02 µM
same,IC50,NCI-H748,> 1.02 µM
same,IC50,NUGC-3,> 1.02 µM
same,IC50,P31-FUJ,> 1.02 µM
same,IC50,RD,> 1.02 µM
same,IC50,RPMI-6666,> 1.02 µM
same,IC50,S-117,> 1.02 µM
same,IC50,SCC-25,> 1.02 µM
same,IC50,SNU-387,> 1.02 µM
same,IC50,SUP-T1,> 1.02 µM
same,IC50,SW1990,> 1.02 µM
same,IC50,SW48,> 1.02 µM
same,IC50,SW780,> 1.02 µM
same,IC50,T98G,> 1.02 µM
same,IC50,TALL-1,> 1.02 µM
same,IC50,8505C,> 1.02 µM
same,IC50,A204,> 1.02 µM
same,IC50,A-427,> 1.02 µM
same,IC50,BHT-101,> 1.02 µM
same,IC50,CAKI-1,> 1.02 µM
same,IC50,TUR,> 1.02 µM
same,IC50,UMC-11,> 1.02 µM
same,IC50,VM-CUB-1,> 1.02 µM
same,IC50,CHP-212,> 1.02 µM
